# Laboratory results published in ChEMBL document CHEMBL1132341, “Synthesis and characterization of fluorescent ligands for the norepinephrine transporter: potential neuroblastoma imaging agents” (J Med Chem, 1999).
# Tested on: SK-N-SH
# Test: Inhibition of [3H]NE uptake into human SK-N-SH-SY5Y Neuroblastoma cells
# Format: functional, cell-based
row,Compound,IC50 [nM]
1,CNCCC(NS(=O)(=O)c1cccc2c(N(C)C)cccc12)c1ccccc1 (stereo not drawn),370
2,CNCCC(Nc1ccc([N+](=O)[O-])c2nonc12)c1ccccc1 (stereo not drawn),850
3,CCOC(=O)[C@@H]1[C@H](O/C(S)=N/c2ccc(/N=N/c3ccc(N(C)C)cc3)cc2)C[C@H]2CC[C@@H]1N2C,1320
4,CCOC(=O)[C@@H]1[C@H](OS(=O)(=O)c2cccc3c(N(C)C)cccc23)C[C@H]2CC[C@@H]1N2C,60
5,N=C(N)NCCN1c2ccccc2C=Cc2ccccc21,30
6,N=C(N)NCc1cccc2ccccc12,60
7,CNCCC(/N=C(\S)Nc1ccc(/N=N/c2ccc(N(C)C)cc2)cc1)c1ccccc1 (stereo not drawn),1020
8,N=C(N)NCc1ccc(/C=C/c2ccccc2)cc1,120
